Assay results from ChEMBL document CHEMBL5653631, “A Potent and Selective ULK1 Inhibitor Suppresses Autophagy and Sensitizes Cancer Cells to Nutrient Stress” (iScience, 2018).
Blank lines part the entries; values can stand above or below the molecule they belong to.

What was measured:
[1] = target: Mitogen-activated protein kinase kinase kinase kinase 1 (Homo sapiens) (UniProt Q92918); assay: Inhibition of human recombinant HPK1 at 500 nM in presence of ATP by radiometric assay relative to control
Sequence of Mitogen-activated protein kinase kinase kinase kinase 1 (Homo sapiens) (Q92918 whole entry, looked up): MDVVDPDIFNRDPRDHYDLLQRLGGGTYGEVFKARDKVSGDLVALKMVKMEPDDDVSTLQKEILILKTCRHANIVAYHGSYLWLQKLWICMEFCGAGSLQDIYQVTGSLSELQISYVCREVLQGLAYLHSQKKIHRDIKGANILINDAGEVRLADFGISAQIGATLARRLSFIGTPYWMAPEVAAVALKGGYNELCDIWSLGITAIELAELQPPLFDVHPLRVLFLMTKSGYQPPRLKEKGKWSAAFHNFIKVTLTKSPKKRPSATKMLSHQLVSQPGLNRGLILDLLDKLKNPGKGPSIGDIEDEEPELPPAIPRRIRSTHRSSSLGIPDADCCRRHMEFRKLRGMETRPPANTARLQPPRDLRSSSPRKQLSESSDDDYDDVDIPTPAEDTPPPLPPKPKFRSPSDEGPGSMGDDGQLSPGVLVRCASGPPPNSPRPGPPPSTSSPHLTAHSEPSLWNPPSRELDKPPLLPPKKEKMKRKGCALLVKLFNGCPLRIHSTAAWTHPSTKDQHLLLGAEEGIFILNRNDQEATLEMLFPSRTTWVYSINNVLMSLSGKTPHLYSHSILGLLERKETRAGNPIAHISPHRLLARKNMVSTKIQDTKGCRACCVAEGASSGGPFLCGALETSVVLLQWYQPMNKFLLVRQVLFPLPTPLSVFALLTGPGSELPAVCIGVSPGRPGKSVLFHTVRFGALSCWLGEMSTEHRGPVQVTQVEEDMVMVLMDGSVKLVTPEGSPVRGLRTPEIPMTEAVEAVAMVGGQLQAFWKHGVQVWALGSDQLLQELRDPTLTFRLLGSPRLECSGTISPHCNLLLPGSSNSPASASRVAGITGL

[2] = target: Serine/threonine-protein kinase PAK 4 (Homo sapiens) (UniProt O96013); assay: Inhibition of human recombinant PAK4 at 500 nM in presence of ATP by radiometric assay relative to control
[3] = target: Protein kinase C eta type (Homo sapiens) (UniProt P24723); assay: Inhibition of human recombinant PKCH at 500 nM in presence of ATP by radiometric assay relative to control
[4] = target: Myosin light chain kinase, smooth muscle (Homo sapiens) (UniProt Q15746); assay: Inhibition of human recombinant smMLCK at 500 nM in presence of ATP by radiometric assay relative to control
Sequence of Myosin light chain kinase, smooth muscle (Homo sapiens) (Q15746 whole entry): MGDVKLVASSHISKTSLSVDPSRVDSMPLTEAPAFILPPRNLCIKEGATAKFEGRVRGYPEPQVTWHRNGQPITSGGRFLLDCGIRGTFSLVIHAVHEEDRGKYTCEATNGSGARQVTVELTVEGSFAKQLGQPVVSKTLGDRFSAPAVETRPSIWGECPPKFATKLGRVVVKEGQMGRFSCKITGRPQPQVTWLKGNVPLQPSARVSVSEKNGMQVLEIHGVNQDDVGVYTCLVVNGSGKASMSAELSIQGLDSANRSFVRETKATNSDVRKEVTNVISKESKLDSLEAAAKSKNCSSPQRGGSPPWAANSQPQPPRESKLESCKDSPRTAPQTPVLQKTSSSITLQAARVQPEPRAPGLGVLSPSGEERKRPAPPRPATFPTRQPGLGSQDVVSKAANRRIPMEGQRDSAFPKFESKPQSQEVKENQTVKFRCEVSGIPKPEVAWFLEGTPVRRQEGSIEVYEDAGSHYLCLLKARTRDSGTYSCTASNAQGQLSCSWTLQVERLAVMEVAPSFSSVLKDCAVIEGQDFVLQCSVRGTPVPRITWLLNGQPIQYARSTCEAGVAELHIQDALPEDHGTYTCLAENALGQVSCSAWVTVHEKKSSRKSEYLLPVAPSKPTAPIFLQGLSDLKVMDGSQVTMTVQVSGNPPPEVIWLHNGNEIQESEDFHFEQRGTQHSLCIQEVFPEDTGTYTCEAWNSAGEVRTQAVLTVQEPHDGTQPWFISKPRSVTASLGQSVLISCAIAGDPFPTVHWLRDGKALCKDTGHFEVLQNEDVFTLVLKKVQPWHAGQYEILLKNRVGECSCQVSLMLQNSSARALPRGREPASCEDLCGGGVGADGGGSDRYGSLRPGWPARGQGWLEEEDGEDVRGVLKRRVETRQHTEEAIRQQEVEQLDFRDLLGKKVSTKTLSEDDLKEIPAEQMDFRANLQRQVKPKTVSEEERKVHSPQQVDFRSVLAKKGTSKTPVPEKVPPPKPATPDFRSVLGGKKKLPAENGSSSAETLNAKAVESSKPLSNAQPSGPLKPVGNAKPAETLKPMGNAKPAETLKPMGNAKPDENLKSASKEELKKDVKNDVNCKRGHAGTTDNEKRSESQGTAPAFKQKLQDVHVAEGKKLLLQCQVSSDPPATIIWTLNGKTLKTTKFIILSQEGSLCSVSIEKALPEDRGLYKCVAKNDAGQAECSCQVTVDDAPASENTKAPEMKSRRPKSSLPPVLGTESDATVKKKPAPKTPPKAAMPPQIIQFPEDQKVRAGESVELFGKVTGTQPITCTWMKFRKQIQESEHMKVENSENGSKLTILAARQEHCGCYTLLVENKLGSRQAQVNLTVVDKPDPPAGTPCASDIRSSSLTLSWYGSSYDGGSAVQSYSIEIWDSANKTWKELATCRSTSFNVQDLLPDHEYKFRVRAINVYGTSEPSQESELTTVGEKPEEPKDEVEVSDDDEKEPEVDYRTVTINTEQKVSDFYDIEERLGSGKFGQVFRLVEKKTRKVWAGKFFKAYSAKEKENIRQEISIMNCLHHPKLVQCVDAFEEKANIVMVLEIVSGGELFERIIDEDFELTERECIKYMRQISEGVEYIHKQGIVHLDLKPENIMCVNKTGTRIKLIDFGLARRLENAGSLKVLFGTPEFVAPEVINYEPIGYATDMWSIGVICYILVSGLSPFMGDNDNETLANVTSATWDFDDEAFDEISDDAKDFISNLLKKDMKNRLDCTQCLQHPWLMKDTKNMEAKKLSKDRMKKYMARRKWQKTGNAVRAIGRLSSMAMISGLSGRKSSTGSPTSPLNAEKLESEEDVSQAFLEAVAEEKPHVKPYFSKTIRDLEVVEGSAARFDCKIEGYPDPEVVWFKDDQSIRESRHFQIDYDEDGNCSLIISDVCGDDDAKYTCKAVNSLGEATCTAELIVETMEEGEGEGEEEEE

[5] = target: Serine/threonine-protein kinase PAK 2 (Homo sapiens) (UniProt Q13177); assay: Inhibition of human recombinant PAK2 at 500 nM related to control ULK1
Sequence of Serine/threonine-protein kinase PAK 2 (Homo sapiens) (Q13177 whole entry): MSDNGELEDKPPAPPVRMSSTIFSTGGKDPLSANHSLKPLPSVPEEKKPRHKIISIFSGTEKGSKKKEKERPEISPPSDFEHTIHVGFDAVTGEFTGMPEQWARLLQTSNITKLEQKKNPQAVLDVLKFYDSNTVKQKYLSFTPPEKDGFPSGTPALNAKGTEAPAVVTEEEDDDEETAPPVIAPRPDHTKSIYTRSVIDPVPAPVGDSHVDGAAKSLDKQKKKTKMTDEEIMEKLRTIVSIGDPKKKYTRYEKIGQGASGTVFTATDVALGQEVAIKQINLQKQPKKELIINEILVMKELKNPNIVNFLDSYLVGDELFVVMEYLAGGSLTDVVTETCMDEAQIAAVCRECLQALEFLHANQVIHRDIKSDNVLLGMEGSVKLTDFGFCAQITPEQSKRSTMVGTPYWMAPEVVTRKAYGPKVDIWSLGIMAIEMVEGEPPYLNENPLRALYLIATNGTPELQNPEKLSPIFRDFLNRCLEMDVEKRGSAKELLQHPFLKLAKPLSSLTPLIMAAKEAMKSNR

[6] = target: Protein kinase C beta type (Homo sapiens) (UniProt P05771); assay: Inhibition of human recombinant PKCb at 500 nM related to control ULK1
Sequence of Protein kinase C beta type (Homo sapiens) (P05771 2-671 limits assumed): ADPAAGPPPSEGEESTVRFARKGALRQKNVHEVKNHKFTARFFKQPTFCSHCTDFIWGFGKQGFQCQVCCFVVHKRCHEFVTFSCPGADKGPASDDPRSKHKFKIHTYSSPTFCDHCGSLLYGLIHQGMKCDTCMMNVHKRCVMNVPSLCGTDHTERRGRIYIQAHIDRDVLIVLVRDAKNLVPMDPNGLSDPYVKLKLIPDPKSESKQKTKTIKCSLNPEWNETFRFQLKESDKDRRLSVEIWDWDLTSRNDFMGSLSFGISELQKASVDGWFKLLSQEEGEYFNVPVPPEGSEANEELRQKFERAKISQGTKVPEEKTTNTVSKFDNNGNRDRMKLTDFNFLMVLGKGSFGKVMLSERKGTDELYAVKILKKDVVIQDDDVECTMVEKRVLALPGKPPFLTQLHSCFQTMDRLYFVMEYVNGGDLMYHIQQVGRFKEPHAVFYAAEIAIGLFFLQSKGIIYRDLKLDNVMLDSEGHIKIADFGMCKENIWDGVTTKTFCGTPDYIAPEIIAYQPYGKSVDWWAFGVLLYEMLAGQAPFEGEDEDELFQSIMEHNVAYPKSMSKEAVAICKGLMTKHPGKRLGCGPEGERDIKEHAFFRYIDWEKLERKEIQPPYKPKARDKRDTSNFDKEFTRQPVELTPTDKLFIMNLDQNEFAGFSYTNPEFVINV

[7] = target: T1, Serine/threonine-protein kinase Nek9 (Homo sapiens) (UniProt Q8TD19); assay: Inhibition of human recombinant NEK9 at 15 nM related to control ULK1
T1 sequence (whole entry): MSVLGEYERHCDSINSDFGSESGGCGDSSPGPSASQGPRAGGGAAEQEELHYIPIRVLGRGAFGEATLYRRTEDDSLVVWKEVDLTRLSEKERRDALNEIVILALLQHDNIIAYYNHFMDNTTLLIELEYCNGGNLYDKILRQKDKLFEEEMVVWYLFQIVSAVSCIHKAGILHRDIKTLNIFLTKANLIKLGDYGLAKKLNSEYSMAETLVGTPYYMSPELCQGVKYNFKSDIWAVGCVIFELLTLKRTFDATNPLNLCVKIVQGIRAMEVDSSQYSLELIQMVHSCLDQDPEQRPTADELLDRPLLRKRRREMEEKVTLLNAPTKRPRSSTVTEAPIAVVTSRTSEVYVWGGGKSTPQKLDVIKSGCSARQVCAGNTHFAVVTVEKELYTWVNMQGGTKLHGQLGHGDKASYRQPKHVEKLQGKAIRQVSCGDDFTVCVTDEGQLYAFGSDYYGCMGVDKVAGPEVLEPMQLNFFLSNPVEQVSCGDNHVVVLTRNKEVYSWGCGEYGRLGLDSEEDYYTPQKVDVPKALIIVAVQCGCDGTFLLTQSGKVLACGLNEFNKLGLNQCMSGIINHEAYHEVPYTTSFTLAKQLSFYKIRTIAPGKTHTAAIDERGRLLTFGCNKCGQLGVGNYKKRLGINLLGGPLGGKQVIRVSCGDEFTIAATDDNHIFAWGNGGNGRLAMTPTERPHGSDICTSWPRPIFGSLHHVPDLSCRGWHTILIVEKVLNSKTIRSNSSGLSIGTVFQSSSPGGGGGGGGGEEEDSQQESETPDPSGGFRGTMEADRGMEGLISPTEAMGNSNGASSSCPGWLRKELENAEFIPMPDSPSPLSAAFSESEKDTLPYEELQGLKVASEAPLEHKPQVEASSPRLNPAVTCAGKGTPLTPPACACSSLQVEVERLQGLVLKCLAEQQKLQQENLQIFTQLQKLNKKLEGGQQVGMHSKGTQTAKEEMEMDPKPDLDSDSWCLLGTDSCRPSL

[8] = target: T2, Serine/threonine-protein kinase Sgk2 (Homo sapiens) (UniProt Q9HBY8); assay: Inhibition of human recombinant SGK2 at 15 nM related to control ULK1
T2 sequence (whole entry): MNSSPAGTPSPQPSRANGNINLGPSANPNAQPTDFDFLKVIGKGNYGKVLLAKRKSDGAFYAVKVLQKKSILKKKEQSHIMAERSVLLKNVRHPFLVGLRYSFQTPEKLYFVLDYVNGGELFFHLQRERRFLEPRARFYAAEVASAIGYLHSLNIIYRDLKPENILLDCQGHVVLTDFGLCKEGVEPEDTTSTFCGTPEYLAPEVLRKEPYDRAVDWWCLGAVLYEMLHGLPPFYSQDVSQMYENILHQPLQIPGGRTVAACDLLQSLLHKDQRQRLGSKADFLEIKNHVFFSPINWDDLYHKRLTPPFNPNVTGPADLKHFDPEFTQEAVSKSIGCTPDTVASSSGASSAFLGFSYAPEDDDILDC

[9] = target: T3, TGF-beta receptor type-1 (Homo sapiens) (UniProt P36897); assay: Inhibition of human recombinant TGFbR1 at 15 nM related to control ULK1
T3 sequence (whole entry): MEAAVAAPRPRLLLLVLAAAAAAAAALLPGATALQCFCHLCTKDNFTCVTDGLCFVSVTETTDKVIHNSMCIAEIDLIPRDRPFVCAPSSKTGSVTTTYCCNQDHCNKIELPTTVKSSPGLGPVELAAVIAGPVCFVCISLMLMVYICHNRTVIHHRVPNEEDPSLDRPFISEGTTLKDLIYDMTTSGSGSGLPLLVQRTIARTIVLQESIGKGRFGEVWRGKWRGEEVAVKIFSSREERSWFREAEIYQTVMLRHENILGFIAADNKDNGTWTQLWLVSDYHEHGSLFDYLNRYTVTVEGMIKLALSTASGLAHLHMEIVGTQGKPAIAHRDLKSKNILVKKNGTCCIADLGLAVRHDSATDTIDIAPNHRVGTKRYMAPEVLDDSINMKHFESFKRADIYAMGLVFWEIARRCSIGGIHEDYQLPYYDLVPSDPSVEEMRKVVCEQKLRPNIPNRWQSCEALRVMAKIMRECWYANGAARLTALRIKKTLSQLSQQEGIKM

[10] = target: DNA-PK/Ku70/Ku85 (Homo sapiens) (UniProt P78527+P12956+P13010); assay: Inhibition of human recombinant DNAPK at 40 nM in presence of ATP by radiometric assay relative to control; assay type: protein-complex assay
[11] = target: Mitogen-activated protein kinase 1 (Homo sapiens) (UniProt P28482); assay: Inhibition of human recombinant Erk2 at 40 nM in presence of ATP by radiometric assay relative to control
Sequence of Mitogen-activated protein kinase 1 (Homo sapiens) (P28482 whole entry): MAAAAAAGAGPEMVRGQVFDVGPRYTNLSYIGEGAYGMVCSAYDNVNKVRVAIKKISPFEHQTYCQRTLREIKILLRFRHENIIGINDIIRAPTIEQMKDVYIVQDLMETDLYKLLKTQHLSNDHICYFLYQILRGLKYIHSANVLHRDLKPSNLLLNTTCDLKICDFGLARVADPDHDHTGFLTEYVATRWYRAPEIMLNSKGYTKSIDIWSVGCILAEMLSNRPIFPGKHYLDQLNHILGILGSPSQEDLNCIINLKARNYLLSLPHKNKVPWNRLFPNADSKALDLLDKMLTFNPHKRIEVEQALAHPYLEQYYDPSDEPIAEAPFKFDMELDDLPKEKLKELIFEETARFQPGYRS

[12] = target: Ribosomal protein S6 kinase alpha-4 (Homo sapiens) (UniProt O75676); assay: Inhibition of human recombinant MSK2 at 40 nM related to control ULK1
Sequence of Ribosomal protein S6 kinase alpha-4 (Homo sapiens) (O75676 whole entry, looked up): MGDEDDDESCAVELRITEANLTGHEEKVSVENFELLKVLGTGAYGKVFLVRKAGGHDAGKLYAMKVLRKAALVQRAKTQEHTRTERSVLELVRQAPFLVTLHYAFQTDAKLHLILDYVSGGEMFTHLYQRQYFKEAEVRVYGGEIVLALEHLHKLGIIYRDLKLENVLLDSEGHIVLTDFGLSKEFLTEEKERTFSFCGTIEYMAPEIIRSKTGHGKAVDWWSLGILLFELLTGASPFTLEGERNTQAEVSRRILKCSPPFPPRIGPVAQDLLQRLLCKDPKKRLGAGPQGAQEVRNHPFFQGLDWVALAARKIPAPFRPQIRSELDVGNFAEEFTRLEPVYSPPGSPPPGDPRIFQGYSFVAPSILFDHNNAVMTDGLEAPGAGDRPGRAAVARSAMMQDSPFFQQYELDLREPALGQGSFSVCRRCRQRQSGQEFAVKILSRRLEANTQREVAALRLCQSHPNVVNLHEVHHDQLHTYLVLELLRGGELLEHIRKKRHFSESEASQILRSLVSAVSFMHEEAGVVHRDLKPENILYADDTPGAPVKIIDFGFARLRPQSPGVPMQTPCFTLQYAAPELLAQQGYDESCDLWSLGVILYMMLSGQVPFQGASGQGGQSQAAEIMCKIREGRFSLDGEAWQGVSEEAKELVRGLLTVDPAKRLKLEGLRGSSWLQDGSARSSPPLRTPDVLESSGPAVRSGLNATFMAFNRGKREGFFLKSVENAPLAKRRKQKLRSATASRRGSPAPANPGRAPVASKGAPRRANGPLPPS

[13] = target: cAMP-dependent protein kinase catalytic subunit alpha (Homo sapiens) (UniProt P17612); assay: Inhibition of human recombinant PKACalpha at 40 nM related to control ULK1

- inhibition [1]: 32%
- inhibition [2]: 41%
- inhibition [3]: 7%
- inhibition [4]: 5%
- fold change (FC) [5]: 0.19
- fold change (FC) [6]: 0.09
Compound: CNC(=O)c1ccccc1Oc1nc(Nc2cc(OC)c(OC)c(OC)c2)ncc1Br

- fold change (FC) [8]: 0
- fold change (FC) [9]: 0.05
Compound: CC(C)[C@H](NC(=O)c1cc(-c2cnn3cc(-c4ccc(OCCN5CCCCC5)cc4)cnc23)cs1)C(F)(F)F
- fold change (FC) [7]: 0.25

- inhibition [10]: 9%
- inhibition [11]: 0%
- fold change (FC) [12]: 0
- fold change (FC) [13]: 0
Compound: O=C(N[C@@H](C1CC1)C(F)(F)F)c1cc(-c2cnn3cc(-c4ccc(F)cc4)cnc23)cs1
